Data reported in patent US20220000880A1, “METHOD AND COMPOSITION EMBODIMENTS FOR TREATING ACUTE MYELOID LEUKEMIA” (Rigel Pharmaceuticals, Inc., priority 2018, published 2022).

Columns and labels:
AML cell line xenograft = experiment: mouse model xenografted with an AML cell line, tumor growth; type: in vivo; conditions: intraperitoneal injections; subcutaneous tumors ≥250 mm^3
From the text: The activity of 6-((5-fluoro-2-((3,4,5-trimethoxyphenyl)amino)pyrimidin-4-yl)amino)-2,2-dimethyl-2H-pyrido[3,2-b][1,4]oxazin-3(4H)-one (or a prodrug thereof), alone, also can be evaluated. To do so, activity of 6-((5-fluoro-2-((3,4,5-trimethoxyphenyl)amino)pyrimidin-4-yl)amino)-2,2-dimethyl-2H-pyrido[3,2-b][1,4]oxazin-3(4H)-one can be tested in the appropriate mouse model xenografted with an AML cell line. Tumors can be injected subcutaneously (e.g., in the right flank) and allowed to grow until they reached an appropriate size (e.g., ≥250 mm^3). Intraperitoneal injections can be used to introduce the treatment. […] In some examples, significant differences in tumor volume between mice receiving 6-((5-fluoro-2-((3,4,5-trimethoxyphenyl)amino)pyrimidin-4-yl)amino)-2,2-dimethyl-2H-pyrido[3,2-b][1,4]oxazin-3(4H)-one alone and mice receiving 6-((5-fluoro-2-((3,4,5-trimethoxyphenyl)amino)pyrimidin-4-yl)amino)-2,2-dimethyl-2H-pyrido[3,2-b][1,4]oxazin-3(4H)-one in combination with venetoclax can be observed.

AML cell lines = experiment: cytotoxicity by Annexin V/PI staining against a panel of AML cell lines; type: cell-based; parameters: cytotoxic activity, agent alone: dose or concentration left out as unconfirmed
Procedure: In this example, the ability of 6-((5-fluoro-2-((3,4,5-trimethoxyphenyl)amino)pyrimidin-4-yl)amino)-2,2-dimethyl-2H-pyrido[3,2-b][1,4]oxazin-3(4H)-one (or a prodrug thereof) to synergistically enhance cytotoxic activity of venetoclax in AML cell lines is evaluated. Cytotoxic effects of venetoclax can be determined using Annexin V/PI staining against a panel of different AML cell lines.

[1] = system: AML samples expressing high levels of HOXA9 and MEIS1; experiment: apoptosis measurement (Annexin V) in AML samples; type: cell-based, human; conditions: 1 μM, 5 μM and 10 μM for 24 hours; alone or in combination
Procedure: Isolation of bone marrow mononuclear cells from human bone marrow aspirates can be achieved by Ficoll density centrifugation (400×g, RT, 45 min). CD34+ bone marrow mononuclear cells can be isolated using the human CD34 MultiSort Kit (Miltenyi Biotec). […] The cells can be passed through a mesh to remove cell clumps and can then be incubated in MACS buffer, which can be supplemented with FcR Blocking Reagent, and CD34 MultiSort MicroBeads for a particular time and at a particular temperature (e.g., 30 minutes at 4° C.). Excess beads are removed by washing and then magnetic separation using LS columns is carried out. After elution, cells are washed once in MACS buffer and can be resuspended in SFEM supplemented with diverse cytokines. Flow cytometry can be used to assess the purity of the isolated cells. […] The Annexin V Apoptosis Detection Kit I (BD Bioscience) can be used to detect apoptotic cell death. Cells are harvested and washed once with PBS, and can be resuspended in Annexin V binding buffer (200 μl 1×) containing 5 μl Annexin-PE or Annexin-APC and incubated at room temperature in the dark. After washing (e.g., once with 1× Annexin binding buffer), cells are resuspended in 1× Annexin V binding buffer containing 7-AAD (5 μl) and incubated at room temperature in the dark. 1× Annexin V binding buffer (200 μl) is added and cells are analysed using a BD LSRFortessa flow cytometer.

HOXA9/MEIS1 cells = experiment: time-lapse microscopy and single-cell tracking of cell fate; type: cell-based
From the text: The effect of Syk inhibition in HOXA9 and HOXA9/MEIS1 cells by monitoring the fate of individual cells and their progeny by time-lapse microscopy and single-cell tracking also can be carried out.

[2] = system: mice transplanted with HOXA9/MEIS1 cells; experiment: mice transplanted with HOXA9/MEIS1 cells treated with fostamatinib-impregnated feed; type: in vivo, mouse; conditions: feed at 3 g/kg, 5 g/kg or 8 g/kg
Procedure: In this example, mice transplanted with HOXA9 MEIS1 or HOXA9 cells are treated with fostamatinib using feed impregnated with fostamatinib at 3 g/kg, 5 g/kg or 8 g/kg (AIN-76A rodent diet).

Structure (SMILES): COc1cc(Nc2ncc(F)c(Nc3ccc4c(n3)NC(=O)C(C)(C)O4)n2)cc(OC)c1OC [6-((5-fluoro-2-((3,4,5-trimethoxyphenyl)amino)pyrimidin-4-yl)amino)-2,2-dimethyl-2H-pyrido[3,2-b][1,4]oxazin-3(4H)-one]
- tumor growth, compound alone (AML cell line xenograft): partially inhibit tumor growth
- effect on cytotoxic activity of venetoclax (AML cell lines; cells treated at different concentrations for e.g. 2 hours): markedly increase the cytotoxic activity of venetoclax
- cytotoxic effects on its own (AML cell lines; compound (or prodrug) alone): absence of any substantial cytotoxic effects
- sensitivity of AML samples with high HOXA9 and MEIS1 compared with samples with weak MEIS1 expression [1]: more sensitive
- cell death compared with cells treated with DMSO (HOXA9/MEIS1 cells): significant increase

Structure (SMILES): COc1cc(Nc2ncc(F)c(Nc3ccc4c(n3)N(COP(=O)(O)O)C(=O)C(C)(C)O4)n2)cc(OC)c1OC [fostamatinib, 6-((5-fluoro-2-((3,4,5-trimethoxyphenyl)amino)pyrimidin-4-yl)amino)-2,2-dimethyl-3-oxo-2,3-dihydro-4H-pyrido[3,2-b][1,4]oxazin-4-yl)methyl dihydrogen phosphate]
- survival of mice ([2]; longer treatment (e.g., 20 days)): significantly prolong the survival
- percentage of leukemic cells ([2]; one week of treatment): reduce the percentage of leukemic cells

Structure (SMILES): CC1(C)CCC(CN2CCN(c3ccc(C(=O)NS(=O)(=O)c4ccc(NCC5CCOCC5)c([N+](=O)[O-])c4)c(Oc4cnc5[nH]ccc5c4)c3)CC2)=C(c2ccc(Cl)cc2)C1 [venetoclax, reference compound]
- cytotoxic activity, agent alone (AML cell lines; venetoclax alone, concentrations ranging): only modest activity
